Source: US11572590B2, “Methods for evaluating tumor cell spheroids using 3D microfluidic cell culture device” (Dana-Farber Cancer Institute, Inc., priority 2017, dated 2023)
Where two headings read alike, the source gives them in different places.

What was measured:
Experiment in all cases: SelectScreen Kinase Profiling, single point inhibition and IC50 for off-target kinases
Format in all cases: biochemical
off-target kinases [1] = target: off-target kinases (Homo sapiens, UniProt Q13177); settings: PAK2 (PAK65), ZLYTE, ATP Km app
off-target kinases [2] = target: off-target kinases (Homo sapiens, UniProt P22455); settings: FGFR4, ZLYTE, ATP Km app
off-target kinases [3] = target: T1, off-target kinases (Homo sapiens, UniProt O43781); settings: DYRK3, ZLYTE, ATP Km app
T1 sequence (O43781 1-588): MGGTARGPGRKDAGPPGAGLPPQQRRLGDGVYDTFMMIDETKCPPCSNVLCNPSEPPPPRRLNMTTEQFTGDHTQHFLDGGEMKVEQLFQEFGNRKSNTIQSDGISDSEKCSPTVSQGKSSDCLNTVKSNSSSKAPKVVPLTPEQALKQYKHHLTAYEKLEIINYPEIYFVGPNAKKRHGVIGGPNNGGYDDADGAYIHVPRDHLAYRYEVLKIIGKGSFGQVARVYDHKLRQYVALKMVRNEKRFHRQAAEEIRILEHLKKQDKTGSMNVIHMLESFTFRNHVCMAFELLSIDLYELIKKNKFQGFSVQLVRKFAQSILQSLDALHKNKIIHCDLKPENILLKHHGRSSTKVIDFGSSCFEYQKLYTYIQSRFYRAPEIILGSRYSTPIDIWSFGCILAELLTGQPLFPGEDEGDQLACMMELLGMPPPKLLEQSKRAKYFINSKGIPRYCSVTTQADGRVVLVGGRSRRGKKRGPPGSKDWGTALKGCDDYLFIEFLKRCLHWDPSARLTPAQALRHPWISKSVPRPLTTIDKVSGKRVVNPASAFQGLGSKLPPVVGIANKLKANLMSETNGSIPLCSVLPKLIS

off-target kinases [4] = target: off-target kinases (Homo sapiens, UniProt P08069); settings: IGF1R, ZLYTE, ATP Km app
off-target kinases [5] = target: off-target kinases (Homo sapiens, UniProt P53355); settings: DAPK1, ATP Km app, Adapta
off-target kinases [6] = target: off-target kinases (Homo sapiens, UniProt Q9P1W9); settings: PIM2, ZLYTE, ATP Km app
off-target kinases [7] = target: off-target kinases (Homo sapiens, UniProt P30530, R499C); settings: AXL R499C, mutant y, LanthaScreen Binding
off-target kinases [8] = target: off-target kinases (Homo sapiens, UniProt P08581); settings: MET (cMet), ZLYTE, ATP Km app
off-target kinases [9] = target: off-target kinases (Homo sapiens, UniProt O00506); settings: STK25 (YSK1), ZLYTE, ATP Km app
off-target kinases [10] = target: off-target kinases (Homo sapiens, UniProt O75676); settings: RPS6KA4 (MSK2), ZLYTE, ATP Km app
off-target kinases [11] = target: off-target kinases (Homo sapiens, UniProt Q7KZI7); settings: MARK2, ATP Km app, ZLYTE
Sequence of off-target kinases (Homo sapiens, UniProt Q7KZI7) (Q7KZI7 whole entry): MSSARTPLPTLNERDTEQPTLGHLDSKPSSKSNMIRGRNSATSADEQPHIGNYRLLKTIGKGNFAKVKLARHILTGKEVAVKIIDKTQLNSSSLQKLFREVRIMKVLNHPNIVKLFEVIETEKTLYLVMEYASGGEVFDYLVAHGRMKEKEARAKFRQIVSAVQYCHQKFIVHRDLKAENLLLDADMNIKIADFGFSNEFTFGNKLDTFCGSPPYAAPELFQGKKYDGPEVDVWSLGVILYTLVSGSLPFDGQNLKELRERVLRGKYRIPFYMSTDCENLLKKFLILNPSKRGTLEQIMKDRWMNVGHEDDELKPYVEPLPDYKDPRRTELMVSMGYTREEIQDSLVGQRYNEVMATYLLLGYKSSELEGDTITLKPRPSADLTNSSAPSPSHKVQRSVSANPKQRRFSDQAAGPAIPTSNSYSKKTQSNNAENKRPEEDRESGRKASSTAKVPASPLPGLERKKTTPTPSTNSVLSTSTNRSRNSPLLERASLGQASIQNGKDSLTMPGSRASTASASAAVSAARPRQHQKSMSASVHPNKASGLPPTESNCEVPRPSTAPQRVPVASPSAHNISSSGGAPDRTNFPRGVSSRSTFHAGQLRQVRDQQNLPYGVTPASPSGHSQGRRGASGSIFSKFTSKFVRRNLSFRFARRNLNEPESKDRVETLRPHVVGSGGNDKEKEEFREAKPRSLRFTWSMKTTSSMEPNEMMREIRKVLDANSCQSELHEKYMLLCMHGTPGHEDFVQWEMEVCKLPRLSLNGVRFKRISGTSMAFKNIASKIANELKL

Sequence of off-target kinases (Homo sapiens, UniProt P30530, R499C) (P30530 26-894 R499C): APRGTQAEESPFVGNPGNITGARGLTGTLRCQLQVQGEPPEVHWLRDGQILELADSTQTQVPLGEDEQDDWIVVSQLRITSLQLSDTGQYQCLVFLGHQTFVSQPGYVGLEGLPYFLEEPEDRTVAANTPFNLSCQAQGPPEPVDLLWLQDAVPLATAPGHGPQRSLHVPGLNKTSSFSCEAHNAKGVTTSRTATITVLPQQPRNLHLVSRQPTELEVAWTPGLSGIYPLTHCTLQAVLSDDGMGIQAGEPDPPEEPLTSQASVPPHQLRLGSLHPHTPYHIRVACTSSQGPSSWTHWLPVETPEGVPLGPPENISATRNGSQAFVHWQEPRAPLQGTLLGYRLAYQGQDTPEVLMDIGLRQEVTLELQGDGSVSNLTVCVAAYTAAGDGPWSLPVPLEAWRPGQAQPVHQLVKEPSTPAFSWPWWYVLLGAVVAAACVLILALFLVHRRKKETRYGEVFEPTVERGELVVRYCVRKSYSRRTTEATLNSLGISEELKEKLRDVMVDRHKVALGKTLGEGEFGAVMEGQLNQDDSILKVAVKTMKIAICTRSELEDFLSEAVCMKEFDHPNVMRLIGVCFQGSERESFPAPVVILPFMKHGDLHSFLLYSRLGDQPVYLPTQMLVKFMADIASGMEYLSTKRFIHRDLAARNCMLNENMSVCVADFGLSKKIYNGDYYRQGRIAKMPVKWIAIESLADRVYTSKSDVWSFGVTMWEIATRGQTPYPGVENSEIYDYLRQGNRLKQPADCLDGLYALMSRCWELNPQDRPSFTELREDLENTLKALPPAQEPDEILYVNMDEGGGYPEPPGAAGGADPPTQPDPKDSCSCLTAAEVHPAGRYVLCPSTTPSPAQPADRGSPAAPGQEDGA
Sequence of off-target kinases (Homo sapiens, UniProt P08069) (P08069 31-1367): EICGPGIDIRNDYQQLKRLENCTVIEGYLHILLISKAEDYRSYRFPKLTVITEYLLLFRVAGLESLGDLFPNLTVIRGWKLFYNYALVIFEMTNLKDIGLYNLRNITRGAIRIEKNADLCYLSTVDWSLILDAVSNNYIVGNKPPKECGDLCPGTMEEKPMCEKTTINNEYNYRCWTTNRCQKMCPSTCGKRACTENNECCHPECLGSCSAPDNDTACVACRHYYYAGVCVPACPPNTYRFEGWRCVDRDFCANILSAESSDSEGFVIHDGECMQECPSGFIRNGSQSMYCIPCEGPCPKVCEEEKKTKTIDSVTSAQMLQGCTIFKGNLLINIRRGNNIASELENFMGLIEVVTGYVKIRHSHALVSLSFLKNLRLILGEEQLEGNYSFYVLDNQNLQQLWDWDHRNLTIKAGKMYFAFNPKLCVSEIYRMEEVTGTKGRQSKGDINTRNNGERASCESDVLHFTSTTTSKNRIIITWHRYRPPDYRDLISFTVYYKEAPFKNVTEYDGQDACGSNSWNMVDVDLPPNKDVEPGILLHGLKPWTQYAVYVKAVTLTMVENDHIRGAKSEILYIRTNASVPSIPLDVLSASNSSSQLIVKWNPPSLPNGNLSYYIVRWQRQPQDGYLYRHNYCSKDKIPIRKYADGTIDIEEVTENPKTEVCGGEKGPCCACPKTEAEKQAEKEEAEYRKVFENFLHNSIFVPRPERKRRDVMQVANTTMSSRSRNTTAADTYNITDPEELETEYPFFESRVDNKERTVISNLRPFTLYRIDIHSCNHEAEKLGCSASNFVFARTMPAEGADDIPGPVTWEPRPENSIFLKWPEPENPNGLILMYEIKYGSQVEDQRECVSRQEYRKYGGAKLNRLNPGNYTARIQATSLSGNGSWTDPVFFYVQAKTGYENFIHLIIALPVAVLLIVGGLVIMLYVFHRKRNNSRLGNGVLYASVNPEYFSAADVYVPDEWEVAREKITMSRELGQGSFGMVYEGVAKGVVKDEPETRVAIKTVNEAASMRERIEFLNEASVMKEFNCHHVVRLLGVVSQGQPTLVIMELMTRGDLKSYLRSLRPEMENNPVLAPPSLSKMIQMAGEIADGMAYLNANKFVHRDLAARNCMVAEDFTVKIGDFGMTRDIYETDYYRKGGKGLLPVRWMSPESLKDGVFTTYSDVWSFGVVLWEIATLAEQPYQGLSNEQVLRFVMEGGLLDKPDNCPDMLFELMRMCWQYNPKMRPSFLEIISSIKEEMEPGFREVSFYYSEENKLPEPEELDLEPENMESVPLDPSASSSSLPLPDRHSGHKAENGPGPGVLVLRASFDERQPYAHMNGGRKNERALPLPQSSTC
Sequence of off-target kinases (Homo sapiens, UniProt P08581) (P08581 25-1390): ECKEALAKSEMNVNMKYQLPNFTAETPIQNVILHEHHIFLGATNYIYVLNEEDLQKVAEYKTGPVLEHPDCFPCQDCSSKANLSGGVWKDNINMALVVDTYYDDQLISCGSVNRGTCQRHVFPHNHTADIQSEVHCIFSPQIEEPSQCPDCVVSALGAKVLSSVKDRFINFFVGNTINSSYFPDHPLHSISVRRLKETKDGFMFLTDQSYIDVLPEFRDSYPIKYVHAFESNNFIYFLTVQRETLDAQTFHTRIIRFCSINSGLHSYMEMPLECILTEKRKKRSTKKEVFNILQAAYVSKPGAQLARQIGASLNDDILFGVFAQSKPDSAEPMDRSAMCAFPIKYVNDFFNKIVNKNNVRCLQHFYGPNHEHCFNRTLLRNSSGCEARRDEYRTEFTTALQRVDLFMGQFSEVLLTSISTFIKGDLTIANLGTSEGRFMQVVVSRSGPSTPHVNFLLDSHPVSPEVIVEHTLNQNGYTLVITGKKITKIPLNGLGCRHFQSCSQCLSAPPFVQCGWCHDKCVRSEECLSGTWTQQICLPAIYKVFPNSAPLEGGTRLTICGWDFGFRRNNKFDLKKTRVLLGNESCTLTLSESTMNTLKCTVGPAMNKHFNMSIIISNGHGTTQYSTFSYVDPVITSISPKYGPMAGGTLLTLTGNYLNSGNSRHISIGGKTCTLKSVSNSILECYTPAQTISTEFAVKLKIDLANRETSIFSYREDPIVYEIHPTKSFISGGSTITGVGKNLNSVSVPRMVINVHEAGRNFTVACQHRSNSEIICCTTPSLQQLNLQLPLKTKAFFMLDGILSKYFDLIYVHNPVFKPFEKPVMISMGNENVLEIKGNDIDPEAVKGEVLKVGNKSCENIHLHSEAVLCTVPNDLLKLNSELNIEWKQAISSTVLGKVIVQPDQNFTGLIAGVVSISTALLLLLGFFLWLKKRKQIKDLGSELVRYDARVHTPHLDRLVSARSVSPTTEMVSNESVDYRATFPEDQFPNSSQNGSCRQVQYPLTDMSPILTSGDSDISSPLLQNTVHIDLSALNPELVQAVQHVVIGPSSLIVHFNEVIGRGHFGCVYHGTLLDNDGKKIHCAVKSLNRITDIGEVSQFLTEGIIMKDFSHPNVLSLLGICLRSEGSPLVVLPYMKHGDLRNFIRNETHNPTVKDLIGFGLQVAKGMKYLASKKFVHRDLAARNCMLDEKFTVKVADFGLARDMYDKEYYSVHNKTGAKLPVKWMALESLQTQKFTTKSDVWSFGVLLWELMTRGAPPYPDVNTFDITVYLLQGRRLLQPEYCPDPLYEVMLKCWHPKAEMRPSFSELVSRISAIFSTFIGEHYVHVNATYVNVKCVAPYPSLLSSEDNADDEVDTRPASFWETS
Sequence of off-target kinases (Homo sapiens, UniProt Q9P1W9) (Q9P1W9 whole entry): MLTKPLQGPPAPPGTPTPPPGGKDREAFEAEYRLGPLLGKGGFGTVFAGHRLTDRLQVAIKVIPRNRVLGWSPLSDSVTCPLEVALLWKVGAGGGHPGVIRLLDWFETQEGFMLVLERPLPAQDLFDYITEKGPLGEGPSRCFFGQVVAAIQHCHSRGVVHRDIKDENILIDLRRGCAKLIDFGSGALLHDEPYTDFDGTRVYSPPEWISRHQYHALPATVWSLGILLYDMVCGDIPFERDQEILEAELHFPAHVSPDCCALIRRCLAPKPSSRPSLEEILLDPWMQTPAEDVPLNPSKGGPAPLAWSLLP
Sequence of off-target kinases (Homo sapiens, UniProt O00506) (O00506 whole entry): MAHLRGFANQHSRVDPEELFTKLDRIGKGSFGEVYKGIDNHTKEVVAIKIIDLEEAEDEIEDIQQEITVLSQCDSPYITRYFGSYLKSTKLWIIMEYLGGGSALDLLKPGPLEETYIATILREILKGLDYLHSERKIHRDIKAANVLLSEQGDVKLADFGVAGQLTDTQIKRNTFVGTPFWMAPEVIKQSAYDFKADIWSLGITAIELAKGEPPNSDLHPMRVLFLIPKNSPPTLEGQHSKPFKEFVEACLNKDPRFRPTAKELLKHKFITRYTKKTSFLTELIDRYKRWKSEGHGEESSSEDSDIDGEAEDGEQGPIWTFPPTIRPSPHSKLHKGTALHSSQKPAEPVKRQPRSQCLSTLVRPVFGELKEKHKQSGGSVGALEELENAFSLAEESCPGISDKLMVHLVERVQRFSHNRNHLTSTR

SMILES: N#Cc1cc(-c2ncnc(Nc3ccc(N4CCN(C5COC5)CC4)cc3)n2)ccc1OC1CCOCC1 [Compound 1, 5-(4-((4-(4-(oxetan-3-yl)piperazin-1-yl)phenyl)amino)-1,3,5-triazin-2-yl)-2-((tetrahydro-2H-pyran-4-yl)oxy)benzonitrile]
- inhibition (off-target kinases [1]; read-out: % Inhibition 1): 6%
- inhibition (off-target kinases [1]; read-out: % Inhibition 2): -1%
- inhibition (off-target kinases [1]; read-out: % Inhibition Avg): 3%
- inhibition (off-target kinases [2]; read-out: % Inhibition 1): 7%
- inhibition (off-target kinases [2]; read-out: % Inhibition 2): -2%
- inhibition (off-target kinases [2]; read-out: % Inhibition Avg): 3%
- inhibition (off-target kinases [3]; read-out: % Inhibition 1): 26%
- inhibition (off-target kinases [3]; read-out: % Inhibition 2): 24%
- inhibition (off-target kinases [3]; read-out: % Inhibition Avg): 25%
- inhibition (off-target kinases [4]; read-out: % Inhibition 1): 1%
- inhibition (off-target kinases [4]; read-out: % Inhibition 2): 2%
- inhibition (off-target kinases [4]; read-out: % Inhibition Avg): 1%
- inhibition (off-target kinases [5]; read-out: % Inhibition 1): 42%
- inhibition (off-target kinases [5]; read-out: % Inhibition 2): 43%
- inhibition (off-target kinases [5]; read-out: % Inhibition Avg): 43%
- inhibition (off-target kinases [6]; read-out: % Inhibition 1): -1%
- inhibition (off-target kinases [6]; read-out: % Inhibition 2): 7%
- inhibition (off-target kinases [6]; read-out: % Inhibition Avg): 3%
- inhibition (off-target kinases [7]; read-out: % Inhibition 1): 28%
- inhibition (off-target kinases [7]; read-out: % Inhibition 2): 27%
- inhibition (off-target kinases [7]; read-out: % Inhibition Avg): 27%
- inhibition (off-target kinases [8]; read-out: % Inhibition 1): 30%
- inhibition (off-target kinases [8]; read-out: % Inhibition 2): 33%
- inhibition (off-target kinases [8]; read-out: % Inhibition Avg): 31%
- inhibition (off-target kinases [9]; read-out: % Inhibition 1): 0%
- inhibition (off-target kinases [9]; read-out: % Inhibition 2): -4%
- inhibition (off-target kinases [9]; read-out: % Inhibition Avg): -2%
- inhibition (off-target kinases [10]; read-out: % Inhibition 1): 0%
- inhibition (off-target kinases [10]; read-out: % Inhibition 2): 2%
- inhibition (off-target kinases [10]; read-out: % Inhibition Avg): 1%
- inhibition (off-target kinases [11]; read-out: % Inhibition 1): 86%
- inhibition (off-target kinases [11]; read-out: % Inhibition 2): 82%
- inhibition (off-target kinases [11]; read-out: % Inhibition Avg): 84%
